According to patent US10168342B2, “Lipid probes and uses thereof” (THE SCRIPPS RESEARCH INSTITUTE, priority 2015, dated 2019):
Read-outs that look alike come from different tables or passages of the source.

Tests used:
[1] = molecular target: T1, AEA-DA lipid probe targets in Neuro2a cells (Mus musculus, UniProt O08547)
T1 sequence (O08547 1-215): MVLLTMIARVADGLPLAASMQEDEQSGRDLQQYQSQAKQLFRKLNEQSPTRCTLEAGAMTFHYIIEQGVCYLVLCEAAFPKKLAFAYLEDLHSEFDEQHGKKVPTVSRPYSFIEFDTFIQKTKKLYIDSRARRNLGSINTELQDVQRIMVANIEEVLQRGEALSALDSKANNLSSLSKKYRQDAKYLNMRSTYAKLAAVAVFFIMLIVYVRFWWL

[2] = molecular target: AEA-DA lipid probe targets in Neuro2a cells (Mus musculus, UniProt P15331)
Chain of AEA-DA lipid probe targets in Neuro2a cells (Mus musculus, UniProt P15331) (P15331 whole entry): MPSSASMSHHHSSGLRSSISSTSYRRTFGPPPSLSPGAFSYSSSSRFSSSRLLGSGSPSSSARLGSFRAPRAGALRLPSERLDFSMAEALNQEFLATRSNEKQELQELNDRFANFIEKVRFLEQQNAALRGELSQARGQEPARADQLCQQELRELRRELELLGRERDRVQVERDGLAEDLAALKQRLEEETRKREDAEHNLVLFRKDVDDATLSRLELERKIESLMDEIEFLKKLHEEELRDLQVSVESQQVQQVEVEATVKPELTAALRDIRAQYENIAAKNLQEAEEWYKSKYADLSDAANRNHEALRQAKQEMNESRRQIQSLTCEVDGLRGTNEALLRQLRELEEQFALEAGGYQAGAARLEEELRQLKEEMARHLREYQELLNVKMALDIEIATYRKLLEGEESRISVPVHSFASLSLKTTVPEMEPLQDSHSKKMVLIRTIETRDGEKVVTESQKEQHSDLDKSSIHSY

[3] = molecular target: T2, AEA-DA lipid probe targets in Neuro2a cells (Mus musculus, UniProt Q62186)
T2 sequence (Q62186 24-172): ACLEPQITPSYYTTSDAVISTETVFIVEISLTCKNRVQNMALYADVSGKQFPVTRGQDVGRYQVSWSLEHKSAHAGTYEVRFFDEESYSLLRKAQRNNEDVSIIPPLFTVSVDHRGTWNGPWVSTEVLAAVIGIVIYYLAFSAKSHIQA

[4] = molecular target: T3, AEA-DA lipid probe targets in Neuro2a cells (Mus musculus, UniProt Q80WJ7)
T3 sequence (Q80WJ7 1-579): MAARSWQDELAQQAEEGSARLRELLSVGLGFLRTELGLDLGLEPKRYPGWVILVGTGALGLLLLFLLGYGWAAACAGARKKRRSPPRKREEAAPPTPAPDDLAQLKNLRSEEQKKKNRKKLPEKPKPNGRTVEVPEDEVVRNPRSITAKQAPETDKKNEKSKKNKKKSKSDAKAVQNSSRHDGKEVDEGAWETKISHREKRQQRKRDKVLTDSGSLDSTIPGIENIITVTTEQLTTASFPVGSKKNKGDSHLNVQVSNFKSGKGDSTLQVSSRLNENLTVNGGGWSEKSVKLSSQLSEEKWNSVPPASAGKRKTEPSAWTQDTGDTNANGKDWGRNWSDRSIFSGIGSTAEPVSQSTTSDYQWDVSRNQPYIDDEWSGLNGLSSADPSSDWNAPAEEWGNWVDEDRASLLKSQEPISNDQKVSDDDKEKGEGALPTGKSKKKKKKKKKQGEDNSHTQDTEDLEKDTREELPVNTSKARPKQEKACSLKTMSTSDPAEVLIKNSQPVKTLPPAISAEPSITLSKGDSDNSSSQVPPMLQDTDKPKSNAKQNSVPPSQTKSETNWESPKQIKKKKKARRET

[5] = molecular target: T4, AEA-DA lipid probe targets in Neuro2a cells (Mus musculus, UniProt Q8BGC4)
T4 sequence (Q8BGC4 1-377): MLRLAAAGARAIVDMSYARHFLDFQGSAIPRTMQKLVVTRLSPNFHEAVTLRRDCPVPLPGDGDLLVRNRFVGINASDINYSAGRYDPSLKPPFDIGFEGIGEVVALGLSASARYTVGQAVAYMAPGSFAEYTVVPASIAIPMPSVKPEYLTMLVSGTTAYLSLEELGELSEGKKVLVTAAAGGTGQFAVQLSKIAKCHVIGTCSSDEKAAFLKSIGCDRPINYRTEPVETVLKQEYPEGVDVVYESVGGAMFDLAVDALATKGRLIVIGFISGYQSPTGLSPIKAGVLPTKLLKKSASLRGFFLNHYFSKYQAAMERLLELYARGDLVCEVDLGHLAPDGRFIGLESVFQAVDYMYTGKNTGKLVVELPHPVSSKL

[6] = molecular target: T5, AEA-DA lipid probe targets in Neuro2a cells (Mus musculus, UniProt Q99J56)
T5 sequence (Q99J56 1-251): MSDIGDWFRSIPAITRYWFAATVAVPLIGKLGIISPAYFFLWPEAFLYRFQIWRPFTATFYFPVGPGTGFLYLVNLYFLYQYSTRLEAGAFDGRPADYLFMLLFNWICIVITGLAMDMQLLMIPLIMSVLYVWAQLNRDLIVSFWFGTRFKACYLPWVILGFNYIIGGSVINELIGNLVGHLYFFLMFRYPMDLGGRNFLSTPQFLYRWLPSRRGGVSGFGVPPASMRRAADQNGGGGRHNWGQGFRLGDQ

[7] = molecular target: AEA-DA lipid probe targets in Neuro2a cells (Mus musculus, UniProt Q8BK63)
Chain of AEA-DA lipid probe targets in Neuro2a cells (Mus musculus, UniProt Q8BK63) (Q8BK63 whole entry): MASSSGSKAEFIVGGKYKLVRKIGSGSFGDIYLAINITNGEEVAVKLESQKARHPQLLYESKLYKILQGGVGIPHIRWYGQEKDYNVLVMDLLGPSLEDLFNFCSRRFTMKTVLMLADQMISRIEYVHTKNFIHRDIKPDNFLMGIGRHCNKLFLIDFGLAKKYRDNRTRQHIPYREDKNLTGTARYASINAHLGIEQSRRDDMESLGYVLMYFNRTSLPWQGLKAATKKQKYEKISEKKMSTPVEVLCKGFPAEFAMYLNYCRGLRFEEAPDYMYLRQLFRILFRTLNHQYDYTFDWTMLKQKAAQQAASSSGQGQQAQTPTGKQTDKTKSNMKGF

[8] = molecular target: T6, AEA-DA lipid probe targets in Neuro2a cells (Mus musculus, UniProt Q8JZN5)
T6 sequence (Q8JZN5 42-625): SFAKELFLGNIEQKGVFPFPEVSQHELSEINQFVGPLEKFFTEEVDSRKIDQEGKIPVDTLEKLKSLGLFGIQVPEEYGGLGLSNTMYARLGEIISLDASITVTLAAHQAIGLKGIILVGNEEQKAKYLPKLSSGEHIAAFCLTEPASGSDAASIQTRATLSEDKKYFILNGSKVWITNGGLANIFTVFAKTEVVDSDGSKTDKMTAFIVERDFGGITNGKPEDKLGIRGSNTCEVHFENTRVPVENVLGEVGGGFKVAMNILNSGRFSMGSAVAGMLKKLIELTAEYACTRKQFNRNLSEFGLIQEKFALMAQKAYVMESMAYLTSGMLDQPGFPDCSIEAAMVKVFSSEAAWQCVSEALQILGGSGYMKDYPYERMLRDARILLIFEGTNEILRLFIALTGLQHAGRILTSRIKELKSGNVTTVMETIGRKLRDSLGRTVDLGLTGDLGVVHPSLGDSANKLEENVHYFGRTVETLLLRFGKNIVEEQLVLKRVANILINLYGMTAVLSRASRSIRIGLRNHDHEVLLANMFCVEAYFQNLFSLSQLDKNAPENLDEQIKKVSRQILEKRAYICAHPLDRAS

CCCCC/C=C\C/C=C\C/C=C\C/C=C\CCCC(=O)NCCO [AEA, anandamide, reference compound]
SILAC ratio, Sec22b ([1]; competitor 200 μM): 1.4 | SILAC ratio Prph ([2]; competitor 200 μM): 1.0 | SILAC ratio, Ssr4 ([3]; competitor 200 μM): 1.8 | SILAC ratio Mtdh ([4]; competitor 200 μM): 1.7 | SILAC ratio, Zadh2 ([5]; competitor 200 μM): 4.8 | SILAC ratio, Derl1 ([6]; competitor 200 μM): 1.8

O=C(/C=C/c1cccnc1)NCCCCC1CCN(C(=O)c2ccccc2)CC1 [FK-866, reference compound]
SILAC ratio, Sec22b ([1]; competitor 25 μM): 1.2 | SILAC ratio Prph ([2]; competitor 25 μM): 1.2 | SILAC ratio, Ssr4 ([3]; competitor 25 μM): 1.2 | SILAC ratio Mtdh ([4]; competitor 25 μM): 1.2 | SILAC ratio, Zadh2 ([5]; competitor 25 μM): 12.6 | SILAC ratio Csnk1a1 ([7]; competitor 25 μM): 1.5 | SILAC ratio Acad9 ([8]; competitor 25 μM): 1.2 | SILAC ratio, Derl1 ([6]; competitor 25 μM): 1.3

CN1CCN(C(=O)c2c(-c3ccccc3)c3cc([N+](=O)[O-])ccc3n2C)CC1 [KML110, (1-Methyl-5-nitro-3-phenyl-1H-indol-2-yl)(4-methylpiperazin-1-yl)methanone]
SILAC ratio, Sec22b ([1]; competitor 25 μM): 1.4 | SILAC ratio Prph ([2]; competitor 25 μM): 1.1 | SILAC ratio, Ssr4 ([3]; competitor 25 μM): 1.5 | SILAC ratio Mtdh ([4]; competitor 25 μM): 1.5 | SILAC ratio, Zadh2 ([5]; competitor 25 μM): 1.5 | SILAC ratio Csnk1a1 ([7]; competitor 25 μM): 1.5 | SILAC ratio Acad9 ([8]; competitor 25 μM): 1.7 | SILAC ratio, Derl1 ([6]; competitor 25 μM): 1.2

CN1CCN(C(=O)c2[nH]c3ccc([N+](=O)[O-])cc3c2-c2ccccc2)CC1 [MJN228, (4-Methylpiperazin-1-yl)(5-nitro-3-phenyl-1H-indol-2-yl)methanone]
SILAC ratio, Sec22b ([1]; competitor 10 μM): 1.5 | SILAC ratio, Sec22b ([1]; competitor 25 μM): 1.6 | SILAC ratio, Sec22b ([1]; competitor 50 μM): 2.0 | SILAC ratio, Sec22b ([1]; competitor 100 μM): 2.0 | SILAC ratio Prph ([2]; competitor 10 μM): 1.0 | SILAC ratio Prph ([2]; competitor 25 μM): 1.2 | SILAC ratio Prph ([2]; competitor 50 μM): 0.7 | SILAC ratio Prph ([2]; competitor 100 μM): 0.9 | SILAC ratio, Ssr4 ([3]; competitor 10 μM): 1.5 | SILAC ratio, Ssr4 ([3]; competitor 25 μM): 1.9 | SILAC ratio, Ssr4 ([3]; competitor 50 μM): 2.4 | SILAC ratio, Ssr4 ([3]; competitor 100 μM): 2.6 | SILAC ratio Mtdh ([4]; competitor 10 μM): 1.3 | SILAC ratio Mtdh ([4]; competitor 25 μM): 1.5 | SILAC ratio Mtdh ([4]; competitor 50 μM): 1.6 | SILAC ratio Mtdh ([4]; competitor 100 μM): 1.9 | SILAC ratio, Zadh2 ([5]; competitor 10 μM): 1.4 | SILAC ratio, Zadh2 ([5]; competitor 25 μM): 1.5 | SILAC ratio, Zadh2 ([5]; competitor 50 μM): 2.3 | SILAC ratio, Zadh2 ([5]; competitor 100 μM): 6.0 | SILAC ratio Csnk1a1 ([7]; competitor 25 μM): 1.4 | SILAC ratio Csnk1a1 ([7]; competitor 100 μM): 1.3 | SILAC ratio Acad9 ([8]; competitor 10 μM): 1.4 | SILAC ratio Acad9 ([8]; competitor 25 μM): 1.2 | SILAC ratio Acad9 ([8]; competitor 50 μM): 1.4 | SILAC ratio Acad9 ([8]; competitor 100 μM): 1.4 | SILAC ratio, Derl1 ([6]; competitor 10 μM): 1.2 | SILAC ratio, Derl1 ([6]; competitor 25 μM): 1.4 | SILAC ratio, Derl1 ([6]; competitor 50 μM): 1.7 | SILAC ratio, Derl1 ([6]; competitor 100 μM): 1.8

C=CCN(C)CCCCCCOc1ccc(C(=O)c2ccc(Br)cc2)c(F)c1 [Ro 48-8071, reference compound]
SILAC ratio, Sec22b ([1]; competitor 25 μM): 1.1 | SILAC ratio Prph ([2]; competitor 25 μM): 0.8 | SILAC ratio, Ssr4 ([3]; competitor 25 μM): 1.2 | SILAC ratio Mtdh ([4]; competitor 25 μM): 1.2 | SILAC ratio, Zadh2 ([5]; competitor 25 μM): 1.0 | SILAC ratio Csnk1a1 ([7]; competitor 25 μM): 0.9 | SILAC ratio Acad9 ([8]; competitor 25 μM): 1.3 | SILAC ratio, Derl1 ([6]; competitor 25 μM): 1.1
